Key:
[1] = target: human monoamine oxidase-B (MAO-B) (Homo sapiens, UniProt P27338); assay: biochemical
[2] = target: D1 (h) (Homo sapiens, UniProt P21728); assay: biochemical
[3] = target: D2L (h) (Homo sapiens, UniProt P14416); assay: biochemical
[4] = target: N neuronal alpha4beta2 (h) (Homo sapiens, UniProt P17787+P43681); details: compound concentration 1.0E-05 M
[5] = target: M3 (h) (Homo sapiens, UniProt P20309); assay: biochemical
M3 (h), sequence (P20309 whole entry): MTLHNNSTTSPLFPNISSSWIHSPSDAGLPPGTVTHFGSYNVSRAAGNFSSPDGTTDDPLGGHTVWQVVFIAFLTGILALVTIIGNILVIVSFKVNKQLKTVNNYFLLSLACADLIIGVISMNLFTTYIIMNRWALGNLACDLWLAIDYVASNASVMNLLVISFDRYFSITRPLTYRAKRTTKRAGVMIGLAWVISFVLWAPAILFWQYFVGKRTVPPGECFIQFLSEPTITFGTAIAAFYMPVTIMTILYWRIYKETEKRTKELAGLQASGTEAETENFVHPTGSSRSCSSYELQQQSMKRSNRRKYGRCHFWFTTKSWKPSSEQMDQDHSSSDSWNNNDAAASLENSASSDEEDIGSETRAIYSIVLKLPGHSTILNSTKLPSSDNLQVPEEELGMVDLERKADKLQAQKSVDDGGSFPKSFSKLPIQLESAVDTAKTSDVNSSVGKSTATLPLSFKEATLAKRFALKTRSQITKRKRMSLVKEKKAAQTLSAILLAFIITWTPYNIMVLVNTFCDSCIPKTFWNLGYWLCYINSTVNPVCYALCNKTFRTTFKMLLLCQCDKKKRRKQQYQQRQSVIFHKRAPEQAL

N neuronal alpha4beta2 (h), sequence (P43681 29-627): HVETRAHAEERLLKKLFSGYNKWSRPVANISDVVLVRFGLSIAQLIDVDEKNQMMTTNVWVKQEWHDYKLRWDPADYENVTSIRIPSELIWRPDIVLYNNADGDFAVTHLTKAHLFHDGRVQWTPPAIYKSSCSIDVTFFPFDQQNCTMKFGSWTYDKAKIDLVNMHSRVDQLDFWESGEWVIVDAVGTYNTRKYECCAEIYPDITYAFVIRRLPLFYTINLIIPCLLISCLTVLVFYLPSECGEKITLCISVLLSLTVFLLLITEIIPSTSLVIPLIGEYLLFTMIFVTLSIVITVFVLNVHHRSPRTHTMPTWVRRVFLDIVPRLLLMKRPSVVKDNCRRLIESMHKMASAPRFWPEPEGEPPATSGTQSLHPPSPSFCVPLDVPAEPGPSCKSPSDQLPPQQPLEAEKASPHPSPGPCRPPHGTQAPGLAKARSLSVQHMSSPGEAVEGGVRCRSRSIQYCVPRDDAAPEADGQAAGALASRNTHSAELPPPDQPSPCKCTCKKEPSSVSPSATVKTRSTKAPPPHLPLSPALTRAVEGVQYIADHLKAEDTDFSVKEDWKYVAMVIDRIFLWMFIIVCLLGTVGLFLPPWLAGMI
N neuronal alpha4beta2 (h), sequence (P17787 26-502): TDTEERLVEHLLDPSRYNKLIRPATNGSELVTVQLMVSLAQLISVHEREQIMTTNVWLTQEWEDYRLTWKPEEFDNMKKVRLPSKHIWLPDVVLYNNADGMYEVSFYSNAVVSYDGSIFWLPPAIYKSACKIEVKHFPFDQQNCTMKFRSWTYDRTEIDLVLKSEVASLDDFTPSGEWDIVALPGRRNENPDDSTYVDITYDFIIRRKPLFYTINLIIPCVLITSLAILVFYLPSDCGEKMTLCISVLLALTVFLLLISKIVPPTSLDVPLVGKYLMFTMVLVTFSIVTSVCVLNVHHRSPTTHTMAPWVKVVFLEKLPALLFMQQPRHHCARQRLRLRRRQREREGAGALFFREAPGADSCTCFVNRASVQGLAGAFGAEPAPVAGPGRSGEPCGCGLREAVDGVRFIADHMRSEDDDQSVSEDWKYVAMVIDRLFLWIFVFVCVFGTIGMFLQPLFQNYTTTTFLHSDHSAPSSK
D2L (h), sequence (P14416 whole entry): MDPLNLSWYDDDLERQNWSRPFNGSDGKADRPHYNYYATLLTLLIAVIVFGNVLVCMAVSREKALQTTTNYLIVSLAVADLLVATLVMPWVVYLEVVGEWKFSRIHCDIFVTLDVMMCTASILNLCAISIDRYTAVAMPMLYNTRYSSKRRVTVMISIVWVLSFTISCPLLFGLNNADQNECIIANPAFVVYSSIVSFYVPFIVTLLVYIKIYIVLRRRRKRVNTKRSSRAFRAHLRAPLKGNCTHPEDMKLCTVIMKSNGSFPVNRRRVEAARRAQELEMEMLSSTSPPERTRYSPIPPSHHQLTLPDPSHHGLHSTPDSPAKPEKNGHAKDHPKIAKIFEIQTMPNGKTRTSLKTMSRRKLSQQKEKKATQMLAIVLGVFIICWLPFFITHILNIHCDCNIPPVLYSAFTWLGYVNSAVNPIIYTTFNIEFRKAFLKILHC
D1 (h), sequence (P21728 whole entry): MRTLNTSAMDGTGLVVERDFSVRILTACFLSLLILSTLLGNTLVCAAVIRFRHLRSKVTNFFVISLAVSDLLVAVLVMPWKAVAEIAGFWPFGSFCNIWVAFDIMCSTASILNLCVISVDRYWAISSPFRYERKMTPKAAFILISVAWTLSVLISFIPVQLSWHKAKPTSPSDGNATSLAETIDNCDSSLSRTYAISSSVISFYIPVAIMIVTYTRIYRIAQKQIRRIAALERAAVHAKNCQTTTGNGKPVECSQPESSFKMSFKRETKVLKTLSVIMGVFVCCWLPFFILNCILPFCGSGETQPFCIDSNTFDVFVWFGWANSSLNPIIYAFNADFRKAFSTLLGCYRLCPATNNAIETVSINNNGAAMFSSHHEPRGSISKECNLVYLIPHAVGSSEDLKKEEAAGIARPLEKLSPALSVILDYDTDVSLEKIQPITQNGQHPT
human monoamine oxidase-B (MAO-B), sequence (P27338 whole entry): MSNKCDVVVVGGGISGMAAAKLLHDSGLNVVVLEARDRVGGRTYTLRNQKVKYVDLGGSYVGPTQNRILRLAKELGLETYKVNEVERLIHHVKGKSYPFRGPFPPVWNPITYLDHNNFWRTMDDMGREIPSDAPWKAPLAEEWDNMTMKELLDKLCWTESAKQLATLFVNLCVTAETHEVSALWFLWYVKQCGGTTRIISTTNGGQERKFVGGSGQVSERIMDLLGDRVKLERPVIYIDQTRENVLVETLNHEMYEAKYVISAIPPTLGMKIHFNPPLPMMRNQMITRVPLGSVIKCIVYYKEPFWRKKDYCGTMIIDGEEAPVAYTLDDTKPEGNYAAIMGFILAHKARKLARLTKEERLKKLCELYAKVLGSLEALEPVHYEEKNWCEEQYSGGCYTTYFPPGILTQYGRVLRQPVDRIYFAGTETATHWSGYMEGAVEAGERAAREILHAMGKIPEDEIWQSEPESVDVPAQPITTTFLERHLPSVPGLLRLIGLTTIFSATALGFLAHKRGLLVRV

Fc1nc(N2CCOCC2)ccc1-c1cc2ccccc2[nH]1 [Compound 75, 4-(6-Fluoro-5-(1H-indol-2-yl)pyridin-2-yl)morpholine]
inhibition at 10 µM [1]: 61%
inhibition at 10 µM [2]: -11.8%
inhibition at 10 µM [3]: -1.3%
% Inhibition, Specific binding [4]: -8.72E+00%
inhibition at 10 µM [5]: -12.5%

Reference: article PMC11956013, “Structure–Activity Relationships and Evaluation of 2-(Heteroaryl-cycloalkyl)-1H-indoles as Tauopathy Positron Emission Tomography Radiotracers” (Journal of Medicinal Chemistry, 2025)
